Values of other authors, collected in patent publication US6979468B1, “Oral composition and method for the treatment of inflammatory cutaneous disorders” (Sirius Laboratories, priority 2002, dated 2005).

Tested on: acne vulgaris
Details: administered orally, 100–600 milligrams per day in divided doses taken 2 to 4 times per day

Structure (SMILES): NC(=O)c1cccnc1 [nicotinamide]
- effect on acne lesions: decrease inflammatory lesions such as papules, pustules, and cysts, but not comedones
